Converted amounts (≈) assume the structure as drawn.
What was measured:
MCF7 = test: cells; conditions: Homo sapiens, MCF7, 48 h; for CC50: read-out: LC50
MDA-MB-468 = test: cells; conditions: Homo sapiens, MDA-MB-468, 48 h; for CC50: read-out: LC50
SNB-19 = test: cells; conditions: Homo sapiens, SNB-19, 48 h; for CC50: read-out: LC50
NCI-H522 = test: cells; conditions: Homo sapiens, NCI-H522, 48 h; for CC50: read-out: LC50
SNB-75 = test: cells; conditions: Homo sapiens, SNB-75, 48 h; for CC50: read-out: LC50
UACC-257 = test: cells; conditions: Homo sapiens, UACC-257, 48 h; for CC50: read-out: LC50
HS 578T = test: cells; conditions: Homo sapiens, 48 h; for CC50: read-out: LC50
DU-145 = test: cells; conditions: Homo sapiens, DU-145, 48 h; for CC50: read-out: LC50
NCI-H226 = test: cells; conditions: Homo sapiens, NCI-H226, 48 h; for CC50: read-out: LC50
RPMI-8226 = test: cells; conditions: Homo sapiens, RPMI-8226, 48 h; for CC50: read-out: LC50
HL-60(TB) = test: cells; conditions: Homo sapiens, HL-60, 48 h; for CC50: read-out: LC50
MDA-MB-435 = test: cells; conditions: Homo sapiens, MDA-MB-435, 48 h; for CC50: read-out: LC50
SN12C = test: cells; conditions: Homo sapiens, 48 h; for CC50: read-out: LC50
OVCAR-8 = test: cells; conditions: Homo sapiens, OVCAR-8, 48 h; for CC50: read-out: LC50
60 cancer cell lines = test: NCI-60 one-dose screen (10 μM); type: cell-based; conditions: Homo sapiens; one dose of 10 μM, mean over 60 cancer cell lines; read-out: Mean Growth Percent (MGP)
From the text: Additionally, the mean of the growth percentages (MGP) of each compound against all the 60 cancer cell lines is also reported, which is used as one of the selection criteria to continue with tests at five concentration doses.

OVCAR-4 = test: cells; conditions: Homo sapiens, OVCAR-4, 48 h; for CC50: read-out: LC50
UACC-62 = test: cells; conditions: Homo sapiens, UACC-62, 48 h; for CC50: read-out: LC50
NCI-H322M = test: cells; conditions: Homo sapiens, 48 h; for CC50: read-out: LC50
M14 = test: cells; conditions: Homo sapiens, M14, 48 h; for CC50: read-out: LC50
SF-539 = test: cells; conditions: Homo sapiens, SF-539, 48 h; for CC50: read-out: LC50, SF-539, 48 h
TK-10 = test: cells; conditions: Homo sapiens, TK-10, 48 h; for CC50: read-out: LC50
SR = test: cells; conditions: Homo sapiens, 48 h
[1] = test system: N. gonorrhoeae ATCC 49226; test: MIC on GC agar plates; type: cell-based, Neisseria gonorrhoeae; conditions: Neisseria gonorrhoeae, ATCC49226, read-out: MIC
Method: An initial screening for bacterial inhibition was performed by the agar diffusion method. […] DMSO and TSB were included as negative controls. Gentamicin and trimethoprim sulfamethoxazole were included as a positive control for growth inhibition. Derivatives showing growth inhibition were tested at least twice before being selected for the microdilution test. For N. gonorrhoeae, the agar diffusion method was also used for screening with some modifications. […] Penicillin and tetracycline were used as controls. […] Briefly, GC agar supplemented with 1% isovitalex was prepared with increasing concentrations of the new compounds and inoculated with 10 µL of a bacterial suspension (1 × 10^4 CFU). The lowest concentration of the compound that inhibited bacterial growth was determined as the MIC. Bacterial growth was examined and verified using the oxidase test. The experiments were performed in duplicate in at least two independent assays.

BT-549 = test: cells; conditions: Homo sapiens, BT-549, 48 h; for CC50: read-out: LC50
[2] = test system: M. tuberculosis ATCC 27294; test: Antitubercular broth microdilution MIC; type: cell-based; conditions: Mycobacterium tuberculosis; M. tuberculosis ATCC 27294 (H37Rv); read-out: Minimum inhibitory concentration (MIC)
NCI/ADR-RES = test: cells; conditions: Homo sapiens, 48 h

What does the source list for `COc1cc(/C=C/C(=O)c2ccc(S(=O)(=O)NCCNc3nc(N(C)C)nc(N4CCOCC4)n3)cc2)cc(OC)c1OC` [23d]?
GI50 (MCF7): 1.64 µM; CC50 (MCF7): 9.66 µM; GI50 (MDA-MB-468): 1.69 µM; CC50 (MDA-MB-468): 6.66 µM; GI50 (SNB-19): 4.28 µM; CC50 (SNB-19): 41.7 µM; GI50 (NCI-H522): 1.66 µM; CC50 (NCI-H522): 6.37 µM; GI50 (SNB-75): 1.56 µM; CC50 (SNB-75): 41.6 µM; GI50 (UACC-257): 5.86 µM; CC50 (UACC-257): 43 µM; GI50 (HS 578T): 2.29 µM; CC50 (HS 578T): > 100 µM; GI50 (DU-145): 3.31 µM; CC50 (DU-145): 34.1 µM; GI50 (NCI-H226): 11.4 µM; CC50 (NCI-H226): 72.4 µM; GI50 (RPMI-8226): 1.39 µM; CC50 (RPMI-8226): > 100 µM; GI50 (HL-60(TB)): 1.97 µM; CC50 (HL-60(TB)): > 100 µM; GI50 (MDA-MB-435): 1.9 µM; CC50 (MDA-MB-435): 8.46 µM; GI50 (SN12C): 2.72 µM; CC50 (SN12C): 38.1 µM; GI50 (OVCAR-8): 2.3 µM; CC50 (OVCAR-8): 36.5 µM; activity at 10 µM (60 cancer cell lines): -32.7%; GI50 (OVCAR-4): 2.21 µM; CC50 (OVCAR-4): 24.8 µM; GI50 (UACC-62): 2.14 µM; CC50 (UACC-62): 22.8 µM; GI50 (NCI-H322M): 7.82 µM; CC50 (NCI-H322M): 48.5 µM; GI50 (M14): 2.18 µM; CC50 (M14): 26.9 µM; GI50 (SF-539): 1.81 µM; CC50 (SF-539): 6.29 µM; GI50 (TK-10): 13.1 µM; CC50 (TK-10): 50.8 µM; GI50 (SR): 1.88 µM; CC50 (SR; read-out: LC50): > 100 µM; MIC [1]: > 500 µg/mL; GI50 (BT-549): 2.01 µM; CC50 (BT-549): 6.91 µM

`CN(C)c1nc(NCCNS(=O)(=O)c2ccc(C(=O)/C=C/c3ccc(F)cc3)cc2)nc(Nc2ccc(F)cc2)n1` [24f] was tested. Which GI50 (MCF7) did it give?
The GI50 was 1.8 µM.

And the CC50 (MCF7)?
Its CC50 is 3.46 µM.

What about the GI50 (MDA-MB-468) of the same compound?
The GI50 was 2.55 µM.

And the CC50 (MDA-MB-468)?
Its CC50 is 8.09 µM.

What about the GI50 (SNB-19) of the same compound?
Its GI50 is 4.58 µM.

And the CC50 (SNB-19)?
Its CC50 is 16.8 µM.

And the GI50 (NCI-H522)?
The GI50 was 2.81 µM.

And the CC50 (NCI-H522)?
The CC50 was 8.9 µM.

And the GI50 (SNB-75)?
Its GI50 is 2.88 µM.

And the CC50 (SNB-75)?
Its CC50 is 16 µM.

And the MIC [2]?
Its MIC is 25 µg/mL (≈ 43.1 µM).

And the GI50 (UACC-257)?
Its GI50 is 3.61 µM.

What about the CC50 (UACC-257) of the same compound?
The CC50 was 15.2 µM.

What about the GI50 (NCI/ADR-RES) of the same compound?
The GI50 was 3.25 µM.

And the CC50 (NCI/ADR-RES; read-out: LC50)?
Its CC50 is 11.6 µM.

And the GI50 (HS 578T)?
Its GI50 is 6.3 µM.

And the CC50 (HS 578T)?
Its CC50 is 71.5 µM.

What about the GI50 (DU-145) of the same compound?
Its GI50 is 3.94 µM.

What about the CC50 (DU-145) of the same compound?
Its CC50 is 14 µM.

And the GI50 (NCI-H226)?
The GI50 was 3.41 µM.

What about the CC50 (NCI-H226) of the same compound?
Its CC50 is 16.4 µM.

And the GI50 (RPMI-8226)?
The GI50 was 2.42 µM.

And the CC50 (RPMI-8226)?
The CC50 was 6.92 µM.

What about the GI50 (HL-60(TB)) of the same compound?
Its GI50 is 2.04 µM.

And the CC50 (HL-60(TB))?
The CC50 was 6.34 µM.

And the GI50 (MDA-MB-435)?
The GI50 was 2.32 µM.

What about the CC50 (MDA-MB-435) of the same compound?
Its CC50 is 5.69 µM.

What about the GI50 (SN12C) of the same compound?
Its GI50 is 1.7 µM.

And the CC50 (SN12C)?
The CC50 was 3.36 µM.

And the GI50 (OVCAR-8)?
The GI50 was 3.42 µM.

And the CC50 (OVCAR-8)?
The CC50 was 13.9 µM.

And the activity at 10 µM (60 cancer cell lines)?
The activity at 10 µM was -70.5%.

And the GI50 (OVCAR-4)?
Its GI50 is 3.68 µM.

And the CC50 (OVCAR-4)?
The CC50 was 15.6 µM.

And the GI50 (UACC-62)?
The GI50 was 3.57 µM.

What about the CC50 (UACC-62) of the same compound?
The CC50 was 14.6 µM.

And the GI50 (NCI-H322M)?
Its GI50 is 4.24 µM.

What about the CC50 (NCI-H322M) of the same compound?
Its CC50 is 17.8 µM.

What about the GI50 (M14) of the same compound?
Its GI50 is 2.6 µM.

And the CC50 (M14)?
Its CC50 is 8.28 µM.

What about the GI50 (SF-539) of the same compound?
The GI50 was 2.52 µM.

And the CC50 (SF-539)?
Its CC50 is 6.78 µM.

And the GI50 (TK-10)?
The GI50 was 4.62 µM.

What about the CC50 (TK-10) of the same compound?
The CC50 was 16.6 µM.

What about the GI50 (BT-549) of the same compound?
Its GI50 is 4.87 µM.

What about the CC50 (BT-549) of the same compound?
The CC50 was 17.1 µM.
